Like-named read-outs stand apart in the source and are kept apart here.
What was measured:
E3 organism [1] = experiment: Zone of Inhibition testing of paper discs saturated with aqueous antimicrobial solutions; format: cell-based, gram-positive, coagulase-negative cocci
Method: In this experiment, the effectiveness of various topical antimicrobial agents against the E3 organism was determined using Zone of Inhibition testing of paper discs saturated with aqueous antimicrobial solutions.

E3 organism [2] = experiment: Zone of Inhibition testing of antimicrobial-loaded transdermal matrix disks; format: cell-based, gram-positive, coagulase-negative cocci
Method: These patches were cut into 1 cm^2 disks and subjected to Zone of Inhibition testing against the E3 organism with 24-hour incubation.
In the next experiment, placebo matrix patches (18 cm^2 area) were manufactured for a clinical wear study.

[3] = system: bacterial count on the skin; conditions: cited from earlier work
[4] = in vivo; cited from earlier work
[5] = In vitro skin flux from PSA matrix patches and hydroalcoholic gels (modified Franz diffusion cells); conditions: 24-hour skin flux of the drug from Morstick 214 PSA patch with 1% BzthCl, relative to 0% enhancer
Method: In vitro skin flux studies were conducted on epidermal membranes (stratum corneum and epidermis) obtained from whole human cadaver skin (epidermal membrane and dermis) by the heat-separation method of Kligman & Christopher, 88 Arch. […] This method consists of immersion of the whole skin for 60 seconds in water at 60° C., followed by mechanical separation of the epidermal and dermal layers. After separation, the epidermal membrane is stored in aluminum foil at −5° C. until use.
Skin flux experiments were conducted in two-compartment glass diffusion cells with a modified Franz design. The receiver compartment was filled with water or an aqueous buffer appropriate to maintain sink conditions for the drug. All receiver media included 0.02% (w/w) sodium azide to inhibit bacterial growth. […]
At predetermined sampling intervals, the entire volume of the receiver compartment solution was collected for drug quantification, and the receiver compartment was filled with fresh receiver solution, taking care to eliminate any air bubbles at the skin/solution interface.
Receiver solution samples were analyzed for drug content by HPLC with external standards of known drug concentration used for calibration. The cumulative amount of drug permeated per unit area at any time t (Qt, μg/cm^2) was determined according to the following equation: [formula] […]

[6] = aqueous solution 2.0% w/w on 0.33 cm^2 paper disks, read-out: Zone of Inhibition

Row | Molecule | zone of inhibition at 2 % strength (E3 organism [1]; [6]) | time required for the bacterial count on the skin to be decreased by 50% [3] | time required to effect a 90% reduction of bacterial count [3] | also measured
1 | COC(=O)c1ccc(O)cc1 [Methyl Paraben] | 0 mm | – | – | –
2 | benzalkonium chloride | – | 7 min | 25 min | Zone of Inhibition (E3 organism [1]; aqueous solution 0.4% w/w on 0.33 cm^2 paper disks): 13 mm; Zone of Inhibition (E3 organism [2]; 0.4% w/w in DuroTak 87-2888 adhesive matrix disks, 24-hour incubation): 15 mm; skin irritation [4]: severe irritation
3 | OCc1ccccc1 [Benzyl Alcohol] | 10 mm | – | – | –
4 | CCO [70% ethanol, ethanol] | – | 0.6 min | 2 min | –
5 | O=C(O)c1ccccc1 [Benzoic Acid] | – | – | – | zone of inhibition at 2 % strength (E3 organism [1]): 10 mm; zone of inhibition at 0.4 % strength (E3 organism [2]; 24 h): < 0 mm
6 | Cl.O=C1CC2(CCCC2)CC(=O)N1CCCCN1CCN(c2ncccn2)CC1 [Buspirone HCI] | – | – | – | % Increase in Q24 [5]: 38 (21%)

— US20030091620A1, “Transdermal drug delivery systems containing quaternary ammonium salts and methods of using the same” (priority 1999, published 2003)
